From PubChem BioAssay AID179 (DTP/NCI, 2004)
Several values for one entry are separate records, joined by “and”; a condition that tells them apart may be missing. Equal entries are not always repeated. Activity calls are given as the source filed them.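 The calls were made as follows: active = compounds giving half or more protection of infected cells from virus-caused growth loss, again on retest; inactive = the rest.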 Where a SMILES comes first, the peptide text is derived from it. The star is where a group is joined. Cbz = O=C(OCc1ccccc1)*

Tested on: CEM cells HIV-1 protection, formazan growth assay
Assay: NCI AIDS Antiviral Assay
Details: for IC50: measured here: growth of uninfected CEM cells
Protocol: The ability of compounds to protect human CEM cells from HIV-1 infection is measured as a screen for new compounds capable of inhibiting the HIV virus. Five concentrations of drug were tested on uninfected and infected cells and cell growth was measured using a soluble formazan assay. […] Compounds that provided at least 50% protection were retested. Compounds that provided at least 50% protection on retest were listed as moderately active. Compounds that reproducibly provided 100% protection were listed as confirmed active. […] Note that the inability to provide protection could be due to toxicity.

| Structure (SMILES) | EC50 [µM] | IC50 | outcome |
| --- | --- | --- | --- |
| CC(C)c1cc2c3c(c1O)OC(=O)C[C@@]3(C)C1[C@@H](OC(=O)C1(C)C)C2=O (stereo partly drawn) | > 501 | 295 µM |  |
| COCn1c(C)c(C)c2c(=O)oc(N(C)C)nc21 | > 200 | 138 µM |  |
| CCOC(=O)CN1CCC2CC1c1c([nH]c3ccccc13)C2c1cc2c(cc1OC)N(C)C1C(O)(C(=O)OC)C(OC(C)=O)C3(CC)C=CCN4CCC21C43 (stereo not drawn) | > 9.55 | > 9.55 µM |  |
| CCOC(=O)CCSS(=O)(=O)c1ccccc1 | > 200 | 35.5 µM |  |
| C=C(C)OCOCCOC | > 200 | > 200 µM |  |
| CS/C(c1ccccc1)=[N+](\[O-])Cc1ccccc1 | > 646 | 457 µM |  |
| C1CCSCCCCCSCCCCCSCCCCCSCC1 | > 200 | 44.7 µM |  |
| COC(=O)c1ccccc1C1CN=NC12Cc1c(C)cc(C)cc1C2=O (stereo not drawn) | > 174 | 28.2 µM |  |
| CN1CCN(C(=O)CCN2c3ccccc3Sc3ccccc32)CC1 | > 513 | 117 µM |  |
| O=C(c1c(F)c(F)c(F)c(F)c1F)N1CCN(C(=O)c2c(F)c(F)c(F)c(F)c2F)C1=S | > 200 | 1.26 µM |  |
| COC1C(=[N+]=[N-])C(=O)NC(=O)N1C1OC(COC(c2ccccc2)(c2ccccc2)c2ccccc2)C(O)C1O (stereo not drawn) | > 18.2 | > 18.2 µM |  |
| NCCCCCCCCCCC(=O)O | 151 | > 200 µM |  |
| O=C(Nc1ccc(Cl)cc1Cl)C(=O)C(C(=O)c1ccc2ccccc2c1)C1OC(=O)c2ccccc21 (stereo not drawn) | > 50.1 | 25.7 µM |  |
| CCC1(O)C(=O)Nc2ccccc2C1=O (stereo not drawn) | > 200 | > 200 µM |  |
| COC(=O)C(NC(=O)CSc1nnc(COc2ccc(Cl)cc2)n1-c1ccccc1)C(C)C (stereo not drawn) | > 200 | 12 µM |  |
| CCNC(=O)Cc1nc2c(=O)[nH]cnc2n1C1OC(CO)C(O)C1O (stereo not drawn) | > 200 | > 200 µM |  |
| Oc1ccccc1C=Nc1ccccc1S.[Cu+2] | > 151 | 2.57 µM |  |
| CCOc1ccc(NC(=O)/C(=C\c2ccc(C)cc2)C(C)=O)cc1 |  |  | inactive |
| Cc1c(/C=C/C(=O)O)no[n+]1[O-] | > 200 | > 200 µM |  |
| Cc1cc(O)c2c(c1O)C(=O)C13C(=C2O)C(=O)C2C(O)C1C1C(O)C3C(=O)C3=C(O)c4c(O)cc(C)c(O)c4C(=O)C321 (stereo not drawn) | > 45.7 | 0.0977 µM |  |
| C[C@H]1CC(=O)C[C@@H]2CC[C@@H]3[C@H](CC[C@]4(C)C(OC(=O)c5cccc6c(=O)c7ccccc7[nH]c56)CC[C@@H]34)[C@]21C (stereo partly drawn) | > 200 | 22.4 µM |  |

| Structure (SMILES) | EC50 [µM] | IC50 | outcome |
| --- | --- | --- | --- |
| COC(=O)C(=O)C(C(=O)C(=O)Nc1ccc(Cl)cc1C)c1nc2ccc(C(=O)c3ccccc3)cc2[nH]c1=O (stereo not drawn) |  |  | inactive |
| O=C1CCC(c2ccccc2)=NN1c1nsc2ccccc12 | > 85.1 | > 85.1 µM |  |
| O=C1c2cccc3cc([N+](=O)[O-])cc(c23)C(=O)N1Cc1cccnc1 |  |  | inactive |
| CC[C@]1(Cc2ccc(OC)c(OC)c2)C=[N+]([O-])O[C@H](OC2CCCC2(c2ccccc2)c2ccccc2)[C@@H]1OC(=O)c1ccccc1 (stereo partly drawn) | > 200 | 1.07 µM |  |
| COc1cc(C(=O)Nc2cccc3ccccc23)c(Br)c(OC)c1OC | > 45.7 | > 45.7 µM |  |
| Cc1ccc(/C=C2\Cc3cccc(C)c3C2=O)c(C(=O)O)c1 | > 200 | 105 µM |  |
| Cc1[nH]n(C(=O)c2ccccc2O)c(=O)c1/C=C1\C(=O)C=Cc2ccccc21 | > 19.5 | 0.398 µM |  |
| NC(=O)NC1=NC(Cc2ccccc2)C(=O)N1Cc1ccccc1 (stereo not drawn) | > 200 | 182 µM |  |
| COc1cc2c(c3oc(C)c(C)c(=O)c13)C=CC(C)(C)O2 | > 200 | 66.1 µM |  |
| N#Cc1c(-c2ccccc2)cc(-c2ccccc2)n(C2OC(CO)C(O)C(O)C2O)c1=O (stereo not drawn) | > 219 | 214 µM and > 60.3 µM |  |
| CN1CCCCCCCC(=O)C(OC(=O)c2ccc([N+](=O)[O-])cc2)CCCCCCC1 (stereo not drawn) | > 100 | 72.4 µM |  |
| CN1CCN2c3ccccc3CC(C#N)(C#N)C2C1 (stereo not drawn) |  |  | inactive |
| CC(C)C(NC(=O)C1CCCN1C(=O)OCc1ccccc1)C(=O)O (stereo not drawn) (Cbz-Pro-Val-OH; configuration not given here) | > 724 | > 724 µM |  |
| COC(=O)C1=C2Nc3ccccc3[C@@]23CCN(Cc2ccccc2)C3C[C@H]1C1=CC(OC)OC1OC (stereo partly drawn) | > 25.7 | 15.1 µM |  |
| CCOC(=O)c1cc(Br)c(-c2onc(C)c2Br)n1C | > 200 | 89.1 µM |  |
| Cc1ccc(N=C(N)NC#N)cc1 | > 1450 | > 1450 µM |  |
| S=c1ncc(-c2cncc(-c3cnc(=S)[nH]c3)n2)c[nH]1 | > 200 | > 200 µM |  |
| O=c1c2cccnc2n2n1Cc1ccccc1C2 | > 200 | 151 µM |  |
| C=C[C@H](C)[C@H](O)c1c(O)c2c(c3c(CCC)cc(=O)oc13)OC(C)(C)C=C2 | > 200 | 49 µM |  |
| N#C/C(=C\c1ccc([N+](=O)[O-])cc1)c1ccccc1 | > 11 | > 11 µM |  |
| Nc1ccc2n[se]nc2c1 |  |  | inactive |

| Structure (SMILES) | EC50 [µM] | IC50 | outcome |
| --- | --- | --- | --- |
| Cc1[nH]c(=O)nc2c1C(NCCCN(C)C)c1cc(Cl)ccc1N2 (stereo not drawn) | > 200 | 8.91 µM |  |
| CCOP(=O)(OCC)/C(C#N)=C/c1cccc(OC)c1 | > 229 | > 229 µM |  |
| CCN1CCC(O)(c2ccc(Cl)cc2)C(C(=O)c2ccc(Cl)cc2)C1 (stereo not drawn) |  |  | inactive |
| Cc1nnc(NS(=O)(=O)c2ccc(N=Nc3cc4ccccc4c(C(=O)O)c3O)cc2)s1 | > 200 | 22.9 µM |  |
| CCCC(CC)C(C(=O)OCC)C1=NC(C)(C)CC(C)O1 (stereo not drawn) | > 200 | > 200 µM |  |
| COC(=O)C(C)(C)C(OP(=O)(OC)OC)=C(C)C | > 891 | > 891 µM |  |
| CCC[CH2][Sn]1([CH2]CCC)[O]C(=O)c2cc(C)ccc2[O]1 | > 9.33 | 3.09 µM |  |
| S=C(N/N=C(/c1ccccc1)c1ccccn1)N1CCCCCC1 | > 0.2 | 0.115 µM |  |
| COc1ccc(S(=O)(=O)N(C)C)cc1C(=O)c1cc(S(=O)(=O)N(C)C)ccc1OC | > 2.29 | > 2.29 µM |  |
| C=CCN(N=O)C(=O)N(CCCC(NC(C)=O)C(=O)NCc1ccccc1)Cc1ccccc1 (stereo not drawn) | > 40.7 | > 40.7 µM |  |
| NC(CC(=O)O)C(=O)O (stereo not drawn) | > 38.9 | > 38.9 µM |  |
| COc1ccc(N2C(=O)C(=O)N(c3ccc(N=Nc4ccccc4)cc3)C2=S)cc1 | > 200 | 11.7 µM |  |
| Clc1cccc(C2=NOC3COC4C=CC=CC4OCC23)c1 (stereo not drawn) | > 58.9 | > 58.9 µM |  |
| CCC[C@@H]1C(=O)N=C(N)N1C(=O)OCc1ccccc1 | > 200 | > 200 µM |  |
| CCCCNC(=S)SSSSC(=S)NCCCC | > 200 | 11.2 µM |  |
| Cc1nc(-n2nc(-c3ccccc3)cc2-c2ccccc2)sc1C(=O)/C=C/c1ccc([N+](=O)[O-])cc1 | > 38 | 30.9 µM |  |
| O=c1c2cccnc2ncn1CCCN1CCOCC1 |  |  | inactive |
| CC1(C)Oc2ccc3c(=O)c4ccccc4oc3c2C1C(=O)O (stereo not drawn) | > 200 | > 200 µM |  |
| COC(O)C(=O)c1c2c(cc3c1CCC3)CCCC2 (stereo not drawn) | > 200 | 6.17 µM |  |
| COC(=O)C1(NC(=O)C(CC(=O)OCc2ccccc2)NC(=O)OCc2ccccc2)CCCCCC1 (stereo not drawn) | > 200 | 107 µM |  |
| NC(=N\N=C\C(O)C(O)C(O)C(O)C(=O)O)/C(N)=N/N=C/C(O)C(O)C(O)C(O)C(=O)O (stereo not drawn) |  |  | inactive |

| Structure (SMILES) | EC50 [µM] | IC50 | outcome |
| --- | --- | --- | --- |
| CN(OC(=O)CC(=O)c1ccccc1)C(=O)Cc1ccccc1 | > 251 | 191 µM |  |
| Cn1cc2ccccc2c1-c1nc(F)nc(Oc2ccc3c(c2)CC[C@@H]2C3CC[C@]3(C)C(O)CCC23)n1 (stereo partly drawn) | > 5.5 | > 5.5 µM |  |
| CN(C)c1ccc(/C=C\C#N)cc1 | > 97.7 | > 97.7 µM |  |
| COc1ccc(N2C(=O)C3c4[nH]c5ccc(Br)cc5c4C4CCC(C(C)(C)C)CC4C3C2=O)cc1 (stereo not drawn) |  |  | inactive |
| O=C(CC(C(=O)c1ccsc1)c1cccs1)c1ccsc1 (stereo not drawn) | > 200 | 15.5 µM |  |
| CCOC(=O)c1cc2c(OC(C)=O)ccc(OC(C)=O)c2s1 | > 2 | 0.0794 µM |  |
| O=c1n(N=S(=O)(c2ccccc2)c2ccccc2)c(=O)n2n1C1C=CC2CC1 | > 200 | > 200 µM |  |
| COc1cc(C2C3C=CC=C4CC=CC(=C43)C3CCC(=O)N32)cc(OC)c1OC (stereo not drawn) | > 200 | > 200 µM |  |
| CCOP(=O)(OCC)C(c1ccc(F)cc1)N(C(=O)NC(F)(F)F)c1ccc(F)cc1 (stereo not drawn) | > 200 | > 200 µM |  |
| COC1OC(CO)C(O)C2NCSC12 (stereo not drawn) | 33.9 | > 200 µM |  |
| Nc1ccc(S(=O)(=O)Nc2nc3ccccc3nc2Nc2ccc(S(N)(=O)=O)cc2)cc1 | > 200 | 20.4 µM |  |
| N=c1c2ccccc2sc2nc3ccccc3n12 | > 52.5 | > 52.5 µM |  |
| Fc1cccc(F)c1C1SCc2nc3cc4ccccc4cc3n21 (stereo not drawn) | > 200 | 24.5 µM |  |
| C=C(C)C12CC3CC(/C(=N/O)C(C1)/C3=N\O)[C@@]2(C)O (stereo partly drawn) | > 355 | > 355 µM |  |
| CC(C)[Si](OC1=C(C(=O)N(C)c2ccccc2Cl)CCCC1)(C(C)C)C(C)C | > 200 | 16.6 µM |  |
| O=[N+]([O-])c1cc(/C=N\NS(=O)(=O)c2ccc(Cl)cc2)c(O)c([N+](=O)[O-])c1 | > 617 | 34.7 µM |  |
| O=C1Oc2ccccc2C(=O)/C1=C1\SSC(c2ccccc2)=C1c1ccccc1 | > 200 | > 200 µM |  |
| CN(C)C=Nc1nc(=O)n(C2CCC(CO)O2)cc1F (stereo not drawn) | 0.0676 | 95.5 µM |  |
| FC(F)(Oc1ccc2ccccc2c1)c1nc2ccccc2o1 | > 200 | 25.7 µM |  |
| Nc1nc(N)c(CCCCc2ccccc2)c(C=O)n1 |  |  | inactive |
| CC1CN=C(N(Cc2ccccc2)C(=O)Nc2ccc(Cl)c(Cl)c2)S1 (stereo not drawn) | > 200 | 67.6 µM |  |
